Where a name gives a salt, the structure may show the parent alone. Read-outs that look alike come from different tables or passages of the source.
Tests used:
Experiment in all cases: Antibacterial activity, MIC by agar dilution (CLSI)
Format in all cases: cell-based
E. coli 13351 = conditions: compound tested alone
Experimental: (§1) The biological activity of representative compounds according to the invention against various bacterial strains was investigated. In a typical study, overnight grown bacterial cultures were diluted appropriately and inoculated on the agar media containing doubling dilutions of the test compounds. Observations for growth or no growth was performed after 16-20 hours of incubation at 35±2° C. in the ambient air. The overall procedure was performed as per Clinical and Laboratory Standards Institute (CLSI) recommendations, (Clinical and Laboratory Standards Institute (CLSI), Performance Standards for Antimicrobial Susceptibility Testing, 20th Informational Supplement, M07-A9, Volume 32, No. 2, 2012). Molten Mueller Hinton Agar (BD, USA) containing serial dilutions of each antibacterial agent were poured on to the plates and allowed to solidify. Appropriate suspensions from the freshly grown cultures were prepared in normal saline so that about 10^4CFU/spot of the organism was delivered on to the drug containing agar plates using automated multipoint inoculator (Mast, UK). The plates were incubated in Biochemical oxygen demand (BOD) incubator at 37° C. for 18 hours and then examined for growth.
(§2) Method for the determination of MIC: The Minimum Inhibitory Concentration (MIC) determination for the combinations was carried out in Muller Hinton Agar (MHA) (BD, USA) according to Clinical and Laboratory Standards Institute (CLSI) recommendations, (Clinical and Laboratory Standards Institute (CLSI), Performance Standards for Antimicrobial Susceptibility Testing, 20th Informational Supplement, M 100-S20, Volume 30, No. 1, 2010). In short, the test strains were adjusted to deliver about 10^4CFU per spot with a multipoint inoculator (Applied Quality Services, UK). The plates were poured with MHA containing doubling concentration range of representative compounds according to present invention. The plates were inoculated and were incubated at 35° C. for 18 hour. […] The Table 2 depicts the antibacterial activity profile of compounds according to present invention against various multidrug resistant bacterial strains.

E. coli 13352 = conditions: compound tested alone
Experimental: as §1, §2

E. coli 13353 = conditions: compound tested alone
Experimental: as §1, §2

E. coli 7 MP = conditions: compound tested alone
Experimental: as §1, §2

E. coli M 138 = conditions: compound tested alone
Experimental: as §1, §2

E. coli M 36 = conditions: compound tested alone
Experimental: as §1, §2

E. coli M 49 = conditions: compound tested alone
Experimental: as §1, §2

E. coli M 50 = conditions: compound tested alone
Experimental: as §1, §2

[1] = test system: K. pneumoniae ATCC 700603
Experimental: as §1, §2

K. pneumoniae H 521 = conditions: compound tested alone
Experimental: as §1, §2

K. pneumoniae H 522 = conditions: compound tested alone
Experimental: as §1, §2

K. pneumoniae H 523 = conditions: compound tested alone
Experimental: as §1, §2

K. pneumoniae H 525 = conditions: compound tested alone
Experimental: as §1, §2

P. mirabilis S 137B = conditions: compound tested alone
Experimental: as §1, §2

[2] = Escherichia coli, 13351, E. coli 13351, read-out: MIC
[3] = Escherichia coli, 13352, E. coli 13352, read-out: MIC
[4] = Escherichia coli, 13353, E. coli 13353, read-out: MIC
[5] = Escherichia coli, 7MP, read-out: MIC
[6] = Escherichia coli, M138, E. coli M 138, read-out: MIC
[7] = Escherichia coli, M36, E. coli M 36, read-out: MIC
[8] = Escherichia coli, M49, E. coli M 49, read-out: MIC
[9] = Escherichia coli, M50, E. coli M 50, read-out: MIC
[10] = Klebsiella pneumoniae, ATCC700603, compound tested alone, read-out: MIC
[11] = Klebsiella pneumoniae, H521, K. pneumoniae H 521, read-out: MIC
[12] = Klebsiella pneumoniae, H522, K. pneumoniae H 522, read-out: MIC
[13] = Klebsiella pneumoniae, H523, K. pneumoniae H 523, read-out: MIC
[14] = Klebsiella pneumoniae, H525, K. pneumoniae H 525, read-out: MIC
[15] = Proteus mirabilis, S137B, read-out: MIC

| Compound | MIC (E. coli 13351; [2]) [µg/mL] | MIC (E. coli 13352; [3]) [µg/mL] | MIC (E. coli 13353; [4]) [µg/mL] | MIC (E. coli 7 MP; [5]) [µg/mL] | MIC (E. coli M 138; [6]) [µg/mL] | MIC (E. coli M 36; [7]) [µg/mL] | MIC (E. coli M 49; [8]) [µg/mL] | MIC (E. coli M 50; [9]) [µg/mL] | MIC [1, 10] [µg/mL] | MIC (K. pneumoniae H 521; [11]) [µg/mL] | MIC (K. pneumoniae H 522; [12]) [µg/mL] | MIC (K. pneumoniae H 523; [13]) [µg/mL] | MIC (K. pneumoniae H 525; [14]) [µg/mL] | MIC (E. coli 13351; E. coli 13351) [µg/mL] | MIC (E. coli 13352; E. coli 13352) [µg/mL] | MIC (E. coli 13353; E. coli 13353) [µg/mL] | MIC (E. coli M 49; E. coli M 49) [µg/mL] | MIC (E. coli M 50; E. coli M 50) [µg/mL] | also measured |
| --- | --- | --- | --- | --- | --- | --- | --- | --- | --- | --- | --- | --- | --- | --- | --- | --- | --- | --- | --- |
| O=C(NNC(=O)[C@@H]1CC[C@@H]2CN1C(=O)N2OS(=O)(=O)O)[C@@H]1C[C@H](n2cncn2)CN1 [Example 29] | 1 | 1 | 0.5 | 2 | 1 | 0.5 | 4 | 0.5 | > 32 | 2 | 2 | 2 | 2 |  |  |  |  |  | MIC (P. mirabilis S 137B; [15]): > 32 µg/mL |
| O=C(NOCC1C[C@@H](N2CCNCC2)CN1)[C@@H]1CC[C@@H]2CN1C(=O)N2OS(=O)(=O)O (stereo partly drawn) [Example 20] | 8 | 16 | 8 | 16 | 4 | 4 | 16 | 8 | > 32 | 8 | 8 | 8 | 8 |  |  |  |  |  |  |
| O=C(NOCC1C[C@@H](N2CCCCC2)CN1)[C@@H]1CC[C@@H]2CN1C(=O)N2OS(=O)(=O)O (stereo partly drawn) [Example 19] | 8 | 8 | 4 | > 32 | 8 | 8 | 32 | 8 | > 32 | 8 | 8 | 8 | 8 |  |  |  |  |  |  |
| O=C(NNC(=O)[C@@H]1CC[C@@H]2CN1C(=O)N2OS(=O)(=O)O)C1C[C@H](n2ccnc2)CN1 (stereo partly drawn) [Example 34] |  |  |  |  |  |  |  |  |  |  |  |  |  | 4 | 8 | 4 | 4 | 8 | MIC (E. coli 7 MP): 16 µg/mL; MIC (E. coli M 36; E. coli M 36): 4 µg/mL; MIC ([1]; compound tested alone): >32 µg/mL; MIC (K. pneumoniae H 521; K. pneumoniae H 521): 8 µg/mL; MIC (K. pneumoniae H 522; K. pneumoniae H 522): 8 µg/mL; MIC (K. pneumoniae H 523; K. pneumoniae H 523): 8 µg/mL; MIC (K. pneumoniae H 525; K. pneumoniae H 525): 8 µg/mL; MIC (P. mirabilis S 137B): >32 µg/mL |
| O=C(NNC(=O)[C@@H]1CC[C@@H]2CN1C(=O)N2OS(=O)(=O)O)[C@@H]1C[C@@H](n2cccn2)CN1 [Example 3] |  |  |  | 8 | 2 | 2 |  |  | > 32 | 4 | 4 | 4 | 4 | 1 | 1 | 1 | 4 | 1 | MIC (P. mirabilis S 137B; [15]): > 32 µg/mL |
| O=C(NOCC1C[C@H](N2CCOCC2)CN1)[C@@H]1CC[C@@H]2CN1C(=O)N2OS(=O)(=O)O (stereo partly drawn) [Example 17] | 8 | 8 | 4 | 16 | 4 | 4 | 16 | 8 | > 32 | 8 | 8 | 8 | 8 |  |  |  |  |  |  |
| O=C(NOCC1C[C@H](N2CCCCC2)CN1)[C@@H]1CC[C@@H]2CN1C(=O)N2OS(=O)(=O)O (stereo partly drawn) [Example 18] | 2 | 2 | 1 | 4 | 2 | 2 | 16 | 2 | > 32 | 2 | 2 | 2 | 2 |  |  |  |  |  |  |
| CN1CCN([C@H]2CNC(CONC(=O)[C@@H]3CC[C@@H]4CN3C(=O)N4OS(=O)(=O)O)C2)CC1 (stereo partly drawn) [Example 22] |  |  |  |  |  |  |  |  |  |  |  |  |  | 8 | 16 | 4 | 8 | 8 | MIC (E. coli 7 MP): 16 µg/mL; MIC (E. coli M 138; E. coli M 138): 8 µg/mL; MIC (E. coli M 36; E. coli M 36): 4 µg/mL; MIC ([1]; compound tested alone): >32 µg/mL; MIC (K. pneumoniae H 521; K. pneumoniae H 521): 8 µg/mL; MIC (K. pneumoniae H 522; K. pneumoniae H 522): 8 µg/mL; MIC (K. pneumoniae H 523; K. pneumoniae H 523): 8 µg/mL; MIC (K. pneumoniae H 525; K. pneumoniae H 525): 8 µg/mL |
| O=C(NOC[C@H]1C[C@H](N2CCOCC2)CN1)[C@@H]1CC[C@@H]2CN1C(=O)N2OS(=O)(=O)O [Example 2, Trifluoro acetic acid salt of (2S,5R)-N-{[(2R,4S)-4-(morpholin-4-yl)pyrrolidin-2-yl]methoxy}-7-oxo-6-(sulfooxy)-1,6-diazabicyclo[3.2.1]octane-2-carboxamide] | 1 | 1 | 1 | 2 | 1 | 1 | 4 | 1 | > 32 | 1 | 1 | 1 | 1 |  |  |  |  |  |  |
| CN1CCN([C@H]2CNC(CONC(=O)[C@@H]3CC[C@@H]4CN3C(=O)N4OS(=O)(=O)O)C2)CC1 (stereo partly drawn) [Example 21] | 8 | 8 | 4 | 16 | 4 | 4 | 16 | 8 | > 32 | 8 | 4 | 4 | 8 |  |  |  |  |  |  |
